Assay: Partition coefficient screen of CMF between organic phase and acidic brine
Assay type: physicochemical
Protocol: The solvent system used in the methods and compositions described herein may also be selected based on the partition coefficient of the 5-(halomethyl)furfural in the reaction mixture. As used herein, “partition coefficient” refers to the ratio of molar concentration of 5-(halomethyl)furfural in the organic phase to 5-(halomethyl)furfural in the aqueous phase in the reaction mixture.
[…] […] A 1 mL sample was removed from each phase. The microwave vial was then resealed, and re-shaken.
The 1 mL samples were added to volumetric flasks, where the acidic brine solution was diluted with THF and an amount of 37% HCl (˜3 mL) sufficient to eliminate the formation of a biphase with THF. The organic phase sample was diluted with toluene. The dilutions were then put into 1 dram vials and saved.
Further sampling of each phase was repeated every […] for the duration of each 4-hour experiment resulting in a total of 6 samples per experiment. Throughout the course of the experiment the microwave vial was shaken every 20 minutes to promote contact between the two phases. The 6 samples of each experiment in this Example were then taken from the 1 dram vials and put into 1.5 ml vials and submitted to HPLC for CMF analysis.

[1] = No. 1, organic Toluene, aqueous HCl (11.66N), 25 °C
[2] = No. 2, organic Toluene, aqueous 1N H+ 11N Li+ 12N Cl−, 24.6 °C
[3] = No. 3, organic Toluene, aqueous 6N H+ 6N Li+ 12N Cl−, 25 °C
[4] = No. 4, organic Toluene, aqueous 2N H+ 10N Li+ 12N Cl−, 29.7 °C
[5] = No. 5, organic Toluene, aqueous 1N H+ 11N Li+ 12N Cl−, 50 °C
[6] = No. 6, organic Toluene, aqueous 6N H+ 6N Li+ 12N Cl−, 50 °C
[7] = No. 7, organic Toluene, aqueous 2N H+ 10N Li+ 12N Cl−, 50 °C
[8] = No. 8, organic Toluene, aqueous 2N H+ 4N Mg2+ 12N Cl−, 23.6 °C
[9] = No. 9, organic Toluene, aqueous 2N H+ 4M sodium triflate 2M Cl−, 27.1 °C
[10] = No. 10, organic Toluene, aqueous 2M H+ 10M Na+ 12M Cl−, 24.6 °C
[11] = No. 11, organic Toluene, aqueous 2M H+ 1:1 12M LiCl:saturated NaCl, 24.1 °C
[12] = No. 12, organic Toluene, aqueous 2M H+ saturated KCl, 24.2 °C
[13] = No. 13, organic Toluene, aqueous 2M H+ 1:1 12M LiCl:saturated KCl, 24.8 °C
[14] = No. 14, organic Toluene, aqueous 2M H+ 1:2 12M LiCl:saturated NaCl, 24.5 °C
[15] = No. 15, organic Toluene, aqueous 2M H+ 1:2 12M LiCl:saturated KCl, 24.5 °C
[16] = No. 16, organic Toluene, aqueous 2M H+ 1:1 12M LiCl:saturated MgCl2, 22 °C
[17] = No. 17, organic Toluene, aqueous 2M H+ 10M Zn2+ 24M Cl−, 22 °C
[18] = No. 18, organic Toluene, aqueous 2M H+ 4.13M Ca2+ 12.2M Cl−, 27 °C
[19] = No. 19, organic Toluene, aqueous 2M H+ 6M Ca2+ 14M Cl−, 27 °C
[20] = No. 20, organic Toluene, aqueous 2M H+ 4.13M Ca2+ 12.2M Cl−, 50 °C
[21] = No. 21, organic Toluene, aqueous 2M H+ 6M Ca2+ 14M Cl−, 50 °C
[22] = No. 22, organic Toluene, aqueous 2M H+ Satd. Rb, 24.5 °C
[23] = No. 23, organic Toluene, aqueous 2M H+ Satd. Cs, 24.5 °C
[24] = No. 24, organic Cepsa ® 550Q, aqueous 6N H+ 6N Li+ 12N Cl−, 23.3 °C
[25] = No. 25, organic Cepsa ® 550Q, aqueous 1N H+ 11N Li+ 12N Cl−, 24.5 °C
[26] = No. 26, organic Cepsa ® 900Q, aqueous 1N H+ 11N Li+ 12N Cl−, 22.8 °C
[27] = No. 27, organic Cepsa ® 900Q, aqueous 6N H+ 6N Li+ 12N Cl−, 26.5 °C
[28] = No. 28, organic Santovac ®-5, aqueous 1N H+ 11N Li+ 12N Cl−, 27.2 °C
[29] = No. 29, organic Santovac ®-5, aqueous 6N H+ 6N Li+ 12N Cl−, 23.7 °C
[30] = No. 30, organic Santovac ®-5, aqueous 2N H+ 10N Li+ 12N Cl−, 28.1 °C
[31] = No. 31, organic Santovac ®-5, aqueous 1N H+ 11N Li+ 12N Cl−, 50 °C
[32] = No. 32, organic Santovac ®-5, aqueous 6N H+ 6N Li+ 12N Cl−, 50 °C
[33] = No. 33, organic Santovac ®-5, aqueous 2N H+ 10N Li+ 12N Cl−, 50 °C
[34] = No. 34, organic Dichloroethane (4 mL), aqueous 37% HCl (4 mL), 28.5 °C
[35] = No. 35, organic Dichloroethane (17.6 mL), aqueous 37% HCl (4 mL), 28.5 °C

O=Cc1ccc(CCl)o1 [CMF, 5-(chloromethyl)furfural]
Normalized ratio (organic:aqueous) [1]: 3.0 | log PC [1]: 0.48 | Normalized ratio (organic:aqueous) [2]: 144.0 | log PC [2]: 2.16 | Normalized ratio (organic:aqueous) [3]: 17.4 | log PC [3]: 1.24 | Normalized ratio (organic:aqueous) [4]: 72.9 | log PC [4]: 1.86 | Normalized ratio (organic:aqueous) [5]: 110.0 | log PC [5]: 2.04 | Normalized ratio (organic:aqueous) [6]: 18.9 | log PC [6]: 1.27 | Normalized ratio (organic:aqueous) [7]: 79.6 | log PC [7]: 1.9 | Normalized ratio (organic:aqueous) [8]: 61.3 | log PC [8]: 1.78 | Normalized ratio (organic:aqueous) [9]: 8.3 | log PC [9]: 0.92 | Normalized ratio (organic:aqueous) [10]: 66.1 | log PC [10]: 1.82 | Normalized ratio (organic:aqueous) [11]: 90.1 | log PC [11]: 1.95 | Normalized ratio (organic:aqueous) [12]: 222.0 | log PC [12]: 2.34 | Normalized ratio (organic:aqueous) [13]: 71.1 | log PC [13]: 1.85 | Normalized ratio (organic:aqueous) [14]: 100.0 | log PC [14]: 2 | Normalized ratio (organic:aqueous) [15]: 119.0 | log PC [15]: 2.07 | Normalized ratio (organic:aqueous) [16]: 68.0 | log PC [16]: 1.83 | Normalized ratio (organic:aqueous) [17]: 0.6 | log PC [17]: −0.23 | Normalized ratio (organic:aqueous) [18]: 73.8 | log PC [18]: 1.87 | Normalized ratio (organic:aqueous) [19]: 80.0 | log PC [19]: 1.9 | Normalized ratio (organic:aqueous) [20]: 82.6 | log PC [20]: 1.91 | Normalized ratio (organic:aqueous) [21]: 141.7 | log PC [21]: 2.15 | Normalized ratio (organic:aqueous) [22]: 74.7 | log PC [22]: 1.87 | Normalized ratio (organic:aqueous) [23]: 41.3 | log PC [23]: 1.61 | Normalized ratio (organic:aqueous) [24]: 1.6 | log PC [24]: 1.61 | Normalized ratio (organic:aqueous) [25]: 20.3 | log PC [25]: 1.31 | Normalized ratio (organic:aqueous) [26]: 10.2 | log PC [26]: 1.01 | Normalized ratio (organic:aqueous) [27]: 0.9 | log PC [27]: −0.04 | Normalized ratio (organic:aqueous) [28]: 60.7 | log PC [28]: 1.78 | Normalized ratio (organic:aqueous) [29]: 6.6 | log PC [29]: 0.82 | Normalized ratio (organic:aqueous) [30]: 43.7 | log PC [30]: 1.64 | Normalized ratio (organic:aqueous) [31]: 65.6 | log PC [31]: 1.81 | Normalized ratio (organic:aqueous) [32]: 10.3 | log PC [32]: 1.01 | Normalized ratio (organic:aqueous) [33]: 55.9 | log PC [33]: 1.74 | Normalized ratio (organic:aqueous) [34]: 10.9 | log PC [34]: 1.03 | Normalized ratio (organic:aqueous) [35]: 11.6 | log PC [35]: 1.7

Source: patent US11299468B2, “Methods for producing 5-(halomethyl)furfural” (Origin Materials Operating, Inc., priority 2013, dated 2022)
